Test [1] concerns the target Human plasma kallikrein (Homo sapiens (Human), UniProt P03952). The test is described as follows: Determination of the IC50 for Plasma Kallikrein. It counts as biochemical. The settings on record: 37° C., fluorogenic substrate H-DPro-Phe-Arg-AFC; read-out: IC50 (human PKal). As to the method: Human plasma kallikrein (Protogen) was incubated at 37° C. with the fluorogenic substrate H-DPro-Phe-Arg-AFC and various concentrations of the test compound. Residual enzyme activity (initial rate of reaction) was determined by measuring the change in optical absorbance at 410 nm and the IC50 value for the test compound was determined.

The target in test [2] is Human KLK1 (Homo sapiens (Human), UniProt P06870). Description: Determination of the IC50 for KLK1. It counts as biochemical. The settings on record: 37° C., fluorogenic substrate H-DVal-Leu-Arg-AFC. How it is done: KLK1 inhibitory activity in vitro was determined using standard published methods (see e.g. Johansen et al., Int. J. Tiss. Reac. 1986, 8, 185; Shori et al., Biochem. Pharmacol., 1992, 43, 1209; Stürzebecher et al., Biol. Chem. Hoppe-Seyler, 1992, 373, 1025). Human KLK1 (Callbiochem) was incubated at 37° C. with the fluorogenic substrate H-DVal-Leu-Arg-AFC and various concentrations of the test compound. Residual enzyme activity (initial rate of reaction) was determined by measuring the change in optical absorbance at 410 nm and the IC50 value for the test compound was determined.
Chain of Human KLK1 (P06870 25-262): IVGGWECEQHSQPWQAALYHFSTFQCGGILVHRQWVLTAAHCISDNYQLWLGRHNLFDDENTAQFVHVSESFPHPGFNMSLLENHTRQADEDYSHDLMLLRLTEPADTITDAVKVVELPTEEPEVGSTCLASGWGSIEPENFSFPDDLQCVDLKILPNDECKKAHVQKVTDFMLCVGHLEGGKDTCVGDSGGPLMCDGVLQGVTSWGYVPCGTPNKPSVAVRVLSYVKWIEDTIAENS

This passage reports IC50 results from US9670157B2, “Benzylamine derivatives” (KALVISTA PHARMACEUTICALS LIMITED, priority 2013, dated 2017).

SMILES strings stand for the structures.

Chain of Human plasma kallikrein (P03952 391-638): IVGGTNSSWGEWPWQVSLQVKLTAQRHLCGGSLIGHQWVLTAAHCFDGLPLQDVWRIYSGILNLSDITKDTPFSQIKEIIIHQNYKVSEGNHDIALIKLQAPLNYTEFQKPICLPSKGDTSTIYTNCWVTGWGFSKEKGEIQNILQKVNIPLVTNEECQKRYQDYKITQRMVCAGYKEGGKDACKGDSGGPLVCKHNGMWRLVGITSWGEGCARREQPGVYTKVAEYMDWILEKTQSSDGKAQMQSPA
Chain of Human plasma kallikrein (P03952 20-390 partner): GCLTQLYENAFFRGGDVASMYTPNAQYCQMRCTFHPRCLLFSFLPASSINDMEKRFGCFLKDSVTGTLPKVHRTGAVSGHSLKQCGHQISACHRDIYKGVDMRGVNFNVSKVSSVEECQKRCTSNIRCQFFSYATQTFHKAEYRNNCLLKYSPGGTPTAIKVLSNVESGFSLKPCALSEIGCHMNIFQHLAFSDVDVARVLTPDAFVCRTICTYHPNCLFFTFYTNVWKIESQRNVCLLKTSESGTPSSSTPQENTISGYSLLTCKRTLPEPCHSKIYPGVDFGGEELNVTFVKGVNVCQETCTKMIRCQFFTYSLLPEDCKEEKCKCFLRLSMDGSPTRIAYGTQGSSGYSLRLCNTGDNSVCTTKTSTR

Turning to `Cc1cc(C(=O)NCc2ccc(CN)cc2Cl)c(C)n1Cc1ccccc1` [Example 56, 1-Benzyl-2,5-dimethyl-1H-pyrrole-3-carboxylic acid 4-aminomethyl-2-chloro-benzylamide], the values for the IC50 in test [1] and in test [2] were 3.86 µM and 5.48 µM, respectively. In the same order, the values of `NC1(c2ccc(CNC(=O)c3cnn(Cc4ccc(Cn5ccccc5=O)cc4)c3)cc2)CC1` [Example 89, 1-[4-(2-Oxo-2H-pyridin-1-ylmethyl)-benzyl]-1H-pyrazole-4-carboxylic acid 4-(1-amino-cyclopropyl)-benzylamide] are 0.226 µM and above 10 µM. In the same order, the values of `Cc1cc(CN)cc(C)c1CNC(=O)c1cc(C)n(Cc2csc(-c3ccccc3)n2)c1C` [Example 3, 2,5-Dimethyl-1-(2-phenyl-thiazol-4-ylmethyl)-1H-pyrrole-3-carboxylic acid 4-aminomethyl-2,6-dimethyl-benzylamide] are 0.006 µM and above 10 µM. As to `Cc1cc(C(=O)NCc2ccc(CN)cc2)c(-c2ccccc2)n1Cc1ccccc1` [Example 57, 1-Benzyl-5-methyl-2-phenyl-1H-pyrrole-3-carboxylic acid 4-aminomethyl-benzylamide], the figures for the 50% inhibitory concentration (IC50) in test [1] and in test [2] were 7.18 µM and above 10 µM, respectively.

For `Cc1cccc(-c2nc(Cn3c(C)cc(C(=O)NCc4ccc(CN)cc4)c3C)cs2)c1` [Example 30, 2,5-Dimethyl-1-(2-m-tolyl-thiazol-4-ylmethyl)-1H-pyrrole-3-carboxylic acid 4-aminomethyl-benzylamide], the IC50 was 0.773 µM in test [1] and above 10 µM in test [2]. Take `Cc1cnn(Cc2ccc(Cn3cc(C(=O)NCc4c(C)cc(CN)cc4C)c(C(F)(F)F)n3)cc2)c1` [Example 118, 1-[4-(4-Methyl-pyrazol-1-ylmethyl)-benzyl]-3-trifluoromethyl-1H-pyrazole-4-carboxylic acid 4-aminomethyl-2,6-dimethyl-benzylamide]: the results for the IC50 in test [1] and in test [2] were 0.001 µM and above 10 µM, respectively. In the same order, the values of `CCOc1cccc(Cn2c(C)cc(C(=O)NCc3ccc(CN)cc3)c2C)c1` [Example 58, 1-(3-Ethoxy-benzyl)-2,5-dimethyl-1H-pyrrole-3-carboxylic acid 4-aminomethyl-benzylamide] are 4.92 µM and above 10 µM. Regarding `Cc1cc(C(=O)NCc2ccc(CN)cc2)c(C)n1Cc1cccc(-c2cccnc2)n1` [Example 17, 1-[2,3′]Bipyridinyl-6-ylmethyl-2,5-dimethyl-1H-pyrrole-3-carboxylic acid 4-aminomethyl-benzylamide], the values for the IC50 in test [1] and in test [2] were 0.492 µM and above 10 µM, respectively. In the same order, the values of `Cc1cc(C(=O)NCc2ccc(CN)cc2)c(C)n1Cc1cc(-c2ccccc2)no1` [Example 11, 2,5-Dimethyl-1-(3-phenyl-isoxazol-5-ylmethyl)-1H-pyrrole-3-carboxylic acid 4-aminomethyl-benzylamide] are 2.42 µM and above 10 µM. As to `CCn1c(C(=O)NCc2ccc(CN)cc2C)cc(C)c1Cc1ccc(Cn2cc(C)cn2)cc1` [Example 99, 1-Ethyl-4-methyl-5-[4-(4-methyl-pyrazol-1-ylmethyl)-benzyl]-1H-pyrrole-2-carboxylic acid 4-aminomethyl-2-methyl-benzylamide], the IC50 is 0.038 µM in test [1] and above 10 µM in test [2]. In the same order, the values of `Cc1c(C(=O)NCc2ccc(CN)cc2)ccn1Cc1csc(-c2ccccc2)n1` [Example 25, 2-Methyl-1-(2-phenyl-thiazol-4-ylmethyl)-1H-pyrrole-3-carboxylic acid 4-aminomethyl-benzylamide] are 1.33 µM and above 10 µM. For `COc1cc(CNC(=O)c2cc(C)n(Cc3csc(-c4ccccc4)n3)c2C)ccc1CN` [Example 53, 2,5-Dimethyl-1-(2-phenyl-thiazol-4-ylmethyl)-1H-pyrrole-3-carboxylic acid 4-aminomethyl-3-methoxy-benzylamide], in that order: 0.677 µM and above 10 µM. In the same order, the values of `Cc1cc(C(=O)NCc2ccc(C3(N)CC3)cc2)c(C)n1Cc1csc(-c2ccccc2)n1` [Example 4, 2,5-Dimethyl-1-(2-phenyl-thiazol-4-ylmethyl)-1H-pyrrole-3-carboxylic acid 4-(1-amino-cyclopropyl)-benzylamide] are 0.121 µM and above 10 µM. Turning to `Cc1c(C(=O)NCc2ccc(CN)cc2)cnn1Cc1csc(-c2ccccc2)n1` [Example 80, 5-Methyl-1-(2-phenyl-thiazol-4-ylmethyl)-1H-pyrazole-4-carboxylic acid 4-aminomethyl-benzylamide], the IC50 in test [1] is 2.34 µM; in test [2] it was above 10 µM.

For the compound `Cc1cc(C(=O)NCc2ccc(CN)cc2)c(C)n1Cc1cccc(N2CCOCC2)c1` [Example 73, 2,5-Dimethyl-1-(3-morpholin-4-yl-benzyl)-1H-pyrrole-3-carboxylic acid 4-aminomethyl-benzylamide], the IC50 is 7.58 µM in test [1] and above 10 µM in test [2].

Consider `Cc1cc(CN)ccc1CNC(=O)c1cc(C)n(Cc2ccc(Cn3ccccc3=O)cc2)c1C` [Example 91, 2,5-Dimethyl-1-[4-(2-oxo-2H-pyridin-1-ylmethyl)-benzyl]-1H-pyrrole-3-carboxylic acid 4-aminomethyl-2-methyl-benzylamide], for which the IC50 in test [1] is 0.029 µM; in test [2], above 10 µM. As to `Cc1cnn(Cc2ccc(Cn3cnc(C(=O)NCc4c(C)cc(CN)cc4C)c3)cc2)c1` [Example 112, 1-[4-(4-Methyl-pyrazol-1-ylmethyl)-benzyl]-1H-imidazole-4-carboxylic acid 4-aminomethyl-2,6-dimethyl-benzylamide], the IC50 in test [1] was 0.002 µM; in test [2], above 10 µM.

Regarding `Cc1cc(C(=O)NC2(c3ccc(CN)cc3)CC2)c(C)n1Cc1csc(-c2ccccc2)n1` [Example 52, 2,5-Dimethyl-1-(2-phenyl-thiazol-4-ylmethyl)-1H-pyrrole-3-carboxylic acid [1-(4-aminomethyl-phenyl)-cyclopropyl]-amide], the IC50 in test [1] was 0.475 µM; in test [2], above 10 µM.

Regarding `Cc1cc(C(=O)NCc2ccc(CN)cc2)c(C)n1Cc1ccc(CN)cc1` [Example 67, 1-(4-Aminomethyl-benzyl)-2,5-dimethyl-1H-pyrrole-3-carboxylic acid 4-aminomethyl-benzylamide], the IC50 turned out to be 3.5 µM in test [1] and 6.97 µM in test [2]. `Cc1cnn(Cc2ccc(Cn3cc(C(=O)NCc4ccc(C5(N)CC5)cc4)nn3)cc2)c1` [Example 110, 1-[4-(4-Methyl-pyrazol-1-ylmethyl)-benzyl]-1H-[1,2,3]triazole-4-carboxylic acid 4-(1-amino-cyclopropyl)-benzylamide]: the IC50 in test [1] was 2.58 µM; in test [2], above 10 µM. For `Cc1cc(C(=O)NCc2ccc(CN)cc2)c(C)n1Cc1csc(-c2ccc(Cl)cc2)n1` [Example 28, 2,5-Dimethyl-1-[2-(4-chlorophenyl)-thiazol-4-ylmethyl]-1H-pyrrole-3-carboxylic acid 4-aminomethyl-benzylamide], in that order: 1.33 µM and above 10 µM.

`Cc1cc(C(=O)NCc2ccc(CN)cc2)c(C)n1Cc1csc(-c2cccc(F)c2)n1` [Example 29, 1-[2-(3-Fluoro-phenyl)-thiazol-4-ylmethyl]-2,5-dimethyl-1H-pyrrole-3-carboxylic acid 4-aminomethyl-benzylamide]: the IC50 in test [1] was 0.14 µM; in test [2], above 10 µM. As to `Cc1cc(C)n(Cc2ccc(Cn3cc(C(=O)NCc4ccc(CN)cc4)cn3)cc2)n1` [Example 86, 1-[4-(3,5-Dimethyl-pyrazol-1-ylmethyl)-benzyl]-1H-pyrazole-4-carboxylic acid 4-aminomethyl-benzylamide], the IC50 in test [1] is 0.007 µM; in test [2], above 10 µM.

Turning to `NCc1ccc(CNC(=O)c2cnn(Cc3ccc(C(=O)N4CCCCC4)cc3)c2)cc1` [Example 87, 1-[4-(Piperidine-1-carbonyl)-benzyl]-1H-pyrazole-4-carboxylic acid 4-aminomethyl-benzylamide], the IC50 in test [1] was 5.48 µM; in test [2], above 10 µM. For `CCn1c(C(=O)NCc2ccc(CN)cc2)cc(C)c1Cc1ccc(Cn2cc(C)cn2)cc1` [Example 121, 1-Ethyl-4-methyl-5-[4-(4-methyl-pyrazol-1-ylmethyl)-benzyl]-1H-pyrrole-2-carboxylic acid 4-aminomethyl-benzylamide], in that order: 0.155 µM and above 10 µM.

`Cc1cnn(Cc2ccc(Cn3cc(C(=O)NCc4ccc(CN)cc4C)nn3)cc2)c1` [Example 109, 1-[4-(4-Methyl-pyrazol-1-ylmethyl)-benzyl]-1H-[1,2,3]triazole-4-carboxylic acid 4-aminomethyl-2-methyl-benzylamide]: the IC50 is 0.005 µM in test [1] and above 10 µM in test [2]. For `CCn1c(C(=O)NCc2c(C)cc(CN)cc2C)cc(C)c1Cc1ccc(Cn2ccccc2=O)cc1` [Example 95, 1-Ethyl-4-methyl-5-[4-(2-oxo-2H-pyridin-1-ylmethyl)-benzyl]-1H-pyrrole-2-carboxylic acid 4-aminomethyl-2,6-dimethyl-benzylamide], in that order: 0.016 µM and 3.9 µM. On to `Cc1cc(C(=O)NCc2ccc(CN)cc2)c(C)n1Cc1ccccc1` [Example 55, 1-Benzyl-2,5-dimethyl-1H-pyrrole-3-carboxylic acid 4-aminomethyl-benzylamide], for which, in test [1], the IC50 is 3.27 µM.
